# Measured values published in patent US20100173990A1, “Transglutaminase Inhibitor Comprising Chlorogenic Acid And A Method For Producing Thereof” (priority 2007, published 2010).
# Molecular target: T1, Transglutaminase 2 (Cavia cutleri, UniProt P08587)
# T1 construct: purchased Sigma-Aldrich T5398
# T1 sequence (P08587 1-690): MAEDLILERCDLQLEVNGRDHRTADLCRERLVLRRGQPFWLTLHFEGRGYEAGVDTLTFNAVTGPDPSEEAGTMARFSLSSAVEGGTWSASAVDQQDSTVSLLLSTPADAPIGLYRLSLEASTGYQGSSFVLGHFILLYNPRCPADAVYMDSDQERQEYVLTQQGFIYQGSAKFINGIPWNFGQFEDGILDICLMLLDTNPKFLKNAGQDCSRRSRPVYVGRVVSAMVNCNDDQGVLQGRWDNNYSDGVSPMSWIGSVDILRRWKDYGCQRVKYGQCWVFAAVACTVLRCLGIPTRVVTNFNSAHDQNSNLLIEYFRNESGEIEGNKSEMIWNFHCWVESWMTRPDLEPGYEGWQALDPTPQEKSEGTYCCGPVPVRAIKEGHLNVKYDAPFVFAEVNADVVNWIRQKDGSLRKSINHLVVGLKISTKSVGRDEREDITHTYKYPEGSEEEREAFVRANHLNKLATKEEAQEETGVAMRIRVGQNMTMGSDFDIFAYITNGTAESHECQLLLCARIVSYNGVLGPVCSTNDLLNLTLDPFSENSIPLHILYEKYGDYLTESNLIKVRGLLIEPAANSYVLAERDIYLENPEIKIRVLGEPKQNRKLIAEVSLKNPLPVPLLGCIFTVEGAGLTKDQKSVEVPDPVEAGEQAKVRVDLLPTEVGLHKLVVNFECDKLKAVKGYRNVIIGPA
# Experiment: In vitro assay for inhibition of transglutaminase activity ([1,4-14C] putrescine incorporation into succinylated casein)
# Format: biochemical
# Settings: for activity of transglutaminase relative to DMSO-control, Assay 1 / activity of transglutaminase relative to DMSO-control, Assay 2 / activity of transglutaminase relative to DMSO-control, Assay 3 / activity of transglutaminase relative to DMSO-control, Mean: control = 1.0000; for activity of transglutaminase relative to DMSO-control, Mean: mean of three assays
# Description: To measure the inhibitory activity of chlorogenic acid which competes with putrescine, the transglutaminase-catalyzed reaction between [1,4,-^14C] putrescine and succinylated casein were observed.
# Succinylated casein was purchased from Calbiochem (Cat. No. 573464), and 1 g of the powder was dissolved in 50 ml of a reaction buffer solution containing 5 mM DTT (0.1 M Tris-acetate (pH 8.0), 10 mM CaCl, 0.15 M NaCl, 1.0 mM EDTA). This solution was stored in a deep freezer for further use. [1,4-^14C] Putrescine dihydrochloride was purchased from GE Healthcare (Cat. No. CFA301), and the stock solution was diluted with distilled water to yield a radiological dose of 5 μCi/ml. Transglutaminase 2 was purchased from Sigma-Aldrich (Cat. No. T5398), and diluted with distilled water to yield a final concentration of 1 unit/ml. Chlorogenic acid (Sigma-Aldrich, Cat No. C3878) was dissolved in DMSO at a concentration of 10 mM to prepare its stock solution, and the stock solution was diluted with DMSO to prepare solutions having various concentrations.
# 450 μl of succinylated casein solution and 50 μl of [1,4-^14C] putrescine dihydrochloride solution were mixed together to prepare a substrate solution. 96 μl of the reaction buffer, 3 μl of the stock solution of chlorogenic acid, and 1 μl of the stock solution of transglutaminase were mixed together to prepare each sample, followed by incubation at 37° C. for 10 min. 500 μl of the substrate solution and 100 μl of sample solution were mixed well, and the mixture was incubated at 37° C. for 2 hrs, before termination with 4.5 ml of cold (4° C.) 7.5% TCA. The final solution was stored at 4° C. for 1 hr. The TCA-precipitates were filtered through a GF/glass fiber filter, washed with 25 ml of cold 5% TCA, and dried. Radioactivity of crosslinked protein was measured using a β-counter (Beckman Coulter), and compensated by the activity of DMSO-control group as a standard. The activity of transglutaminase was represented by the measured values.
smiles,measurement,setting,value
"O=C(/C=C/c1ccc(O)c(O)c1)O[C@@H]1C[C@](O)(C(=O)O)C[C@@H](O)[C@H]1O [chlorogenic acid, 3-[[3-(3,4-dihydroxyphenyl)-1-oxo-2-propenyl]oxy]-1,4,5-trihydroxycyclohexanecarboxylic acid]","activity of transglutaminase relative to DMSO-control, Assay 1",0.5 μM chlorogenic acid,0.9450
same,"activity of transglutaminase relative to DMSO-control, Assay 2",0.5 μM chlorogenic acid,0.8658
same,"activity of transglutaminase relative to DMSO-control, Assay 3",0.5 μM chlorogenic acid,0.9028
same,"activity of transglutaminase relative to DMSO-control, Mean",0.5 μM chlorogenic acid,0.9045
same,"activity of transglutaminase relative to DMSO-control, Assay 1",1.0 μM chlorogenic acid,0.8294
same,"activity of transglutaminase relative to DMSO-control, Assay 2",1.0 μM chlorogenic acid,0.7454
same,"activity of transglutaminase relative to DMSO-control, Assay 3",1.0 μM chlorogenic acid,0.5411
same,"activity of transglutaminase relative to DMSO-control, Mean",1.0 μM chlorogenic acid,0.7053
same,"activity of transglutaminase relative to DMSO-control, Assay 1",2.0 μM chlorogenic acid,0.4526
same,"activity of transglutaminase relative to DMSO-control, Assay 2",2.0 μM chlorogenic acid,0.5111
same,"activity of transglutaminase relative to DMSO-control, Assay 3",2.0 μM chlorogenic acid,0.3081
same,"activity of transglutaminase relative to DMSO-control, Mean",2.0 μM chlorogenic acid,0.4240
same,"activity of transglutaminase relative to DMSO-control, Assay 1",3.0 μM chlorogenic acid,0.2041
same,"activity of transglutaminase relative to DMSO-control, Assay 2",3.0 μM chlorogenic acid,0.1523
same,"activity of transglutaminase relative to DMSO-control, Assay 3",3.0 μM chlorogenic acid,0.1209
same,"activity of transglutaminase relative to DMSO-control, Mean",3.0 μM chlorogenic acid,0.1591
same,"activity of transglutaminase relative to DMSO-control, Assay 1",5.0 μM chlorogenic acid,0.1094
same,"activity of transglutaminase relative to DMSO-control, Assay 2",5.0 μM chlorogenic acid,0.1009
same,"activity of transglutaminase relative to DMSO-control, Assay 3",5.0 μM chlorogenic acid,0.0797
same,"activity of transglutaminase relative to DMSO-control, Mean",5.0 μM chlorogenic acid,0.0966
same,"activity of transglutaminase relative to DMSO-control, Assay 1",10.0 μM chlorogenic acid,0.0713
same,"activity of transglutaminase relative to DMSO-control, Assay 2",10.0 μM chlorogenic acid,0.0876
same,"activity of transglutaminase relative to DMSO-control, Assay 3",10.0 μM chlorogenic acid,0.0754
same,"activity of transglutaminase relative to DMSO-control, Mean",10.0 μM chlorogenic acid,0.0781
same,"activity of transglutaminase relative to DMSO-control, Assay 1",50.0 μM chlorogenic acid,0.0711
same,"activity of transglutaminase relative to DMSO-control, Assay 2",50.0 μM chlorogenic acid,0.0808
same,"activity of transglutaminase relative to DMSO-control, Assay 3",50.0 μM chlorogenic acid,0.0703
same,"activity of transglutaminase relative to DMSO-control, Mean",50.0 μM chlorogenic acid,0.0741
same,IC50,calculated by nonlinear regression from mean values,1.49 µM
same,inhibition of the activity of transglutaminase (FIG. 1),relative inhibition activities versus concentration,inhibited in a chlorogenic acid concentration-dependent manner
